The values below come from ChEMBL document CHEMBL1157371, “Prevalence, characteristics, and molecular epidemiology of macrolide and fluoroquinolone resistance in clinical isolates of Streptococcus pneumoniae at five tertiary-care hospitals in Korea” (2007).

Converted amounts (≈) assume the structure as drawn.

Common to all, as to type: functional
For test [1], the system named is Streptococcus pneumoniae. The experiment in a line: Antibacterial activity against erythromycin-resistant Streptococcus pneumoniae isolates assessed as percent resistant isolates by broth microdilution method.
Test [2] relates to Streptococcus pneumoniae. The experiment in a line: Antibacterial activity against erythromycin-resistant Streptococcus pneumoniae isolates assessed as percent susceptible isolates by broth microdilution method. (Dilution methods test growth across graded concentrations, often in twofold steps.)
The test system of test [3] is Streptococcus pneumoniae. The experiment in a line: Antibacterial activity against erythromycin-resistant Streptococcus pneumoniae isolates by broth microdilution method.
Test [4] relates to Streptococcus pneumoniae. The experiment in a line: Antibacterial activity against erythromycin-resistant Streptococcus pneumoniae isolate-8 with parE Ile460Val mutation by broth microdilution method.
For test [5], the system named is Streptococcus pneumoniae. The experiment in a line: Antibacterial activity against erythromycin-resistant Streptococcus pneumoniae isolate-9 with parC Asn94ser and parE Ile460Val mutation by broth microdilution method.
For test [6], the system named is Streptococcus pneumoniae. The experiment in a line: Antibacterial activity against erythromycin-resistant Streptococcus pneumoniae isolate-1 with gyrA Glu85Lys, ParC Ser79Phe and parE Ile460Val mutation by broth microdilution method.
In test [7] the test system is Streptococcus pneumoniae. Description: Antibacterial activity against erythromycin-resistant Streptococcus pneumoniae isolate-4 with gyrA Ser81Phe, ParC Lys137Asn and parE Ile460Val, Asp435Asn mutation by broth microdilution method.
In test [8] the test system is Streptococcus pneumoniae. Description: Antibacterial activity against erythromycin-resistant Streptococcus pneumoniae isolate-3 with ParC Ser79Tyr and parE Ile460Val mutation by broth microdilution method.
In test [9] the test system is Streptococcus pneumoniae. Description: Antibacterial activity against erythromycin-resistant Streptococcus pneumoniae isolate-7 with parE Ile460Val mutation by broth microdilution method.
In test [10] the test system is Streptococcus pneumoniae. Description: Antibacterial activity against erythromycin-resistant Streptococcus pneumoniae isolate-5 with ParC Ser79Tyr, Lys137Asn and parE Ile460Val mutation by broth microdilution method.
Test [11] has as its system Streptococcus pneumoniae. Description: Antibacterial activity against erythromycin-resistant Streptococcus pneumoniae isolate-6 with parE Ile460Val mutation by broth microdilution method.
Test [12] relates to Streptococcus pneumoniae. The experiment in a line: Antibacterial activity against erythromycin-resistant Streptococcus pneumoniae isolate-2 with gyrA Ser81Phe, Ser114Gly, ParC Ser52Gly, Ser79Phe, Asn91Asp and parE Ile460Val mutation by broth microdilution method.

One may read the MIC50 as the lowest concentration that inhibits either 50% of growth or 50% of the strains tested, depending on the study. A higher MIC50 goes with lower susceptibility. The term MIC90 denotes the lowest concentration that inhibits either 90% of growth or 90% of the strains tested, depending on the study. A low value points to higher susceptibility. Consider `CC1(C)S[C@@H]2[C@H](NC(=O)[C@H](N)c3ccc(O)cc3)C(=O)N2[C@H]1C(=O)O` [AMOXICILLIN], for which the Activity in test [1] came to 33.2%. Besides, the Percent susceptible isolates in test [2] is given as 40.9%. In addition, in [3], the MIC50 is 4 µg/mL (≈ 10.9 µM) and the MIC90 was determined as 16 µg/mL (≈ 43.8 µM).
With `CO/N=C(\C(=O)N[C@@H]1C(=O)N2C(C(=O)O)=C(COC(C)=O)CS[C@H]12)c1csc(N)n1` [CEFOTAXIME], in test [1], the Activity is 3.4%. The Percent susceptible isolates in test [2] was 78.7%. Further, in test [3], the MIC50 was found to be 1 µg/mL (≈ 2.2 µM) and the MIC90 was 2 µg/mL (≈ 4.39 µM).
As to `CO/N=C(\C(=O)N[C@@H]1C(=O)N2C(C(=O)O)=C(CSc3nc(=O)c(O)nn3C)CS[C@H]12)c1csc(N)n1` [CEFTRIAXONE], the Activity in test [1] was 3.4%. Further, the Percent susceptible isolates in [2] is given as 76.2%. In [3], this compound yielded an MIC50 of 1 µg/mL (≈ 1.8 µM) and an MIC90 of 2 µg/mL (≈ 3.61 µM).
On the same counts, the results for `CC[C@H]1OC(=O)[C@H](C)[C@@H](O[C@H]2C[C@@](C)(OC)[C@@H](O)[C@H](C)O2)[C@H](C)[C@@H](O[C@@H]2O[C@H](C)C[C@H](N(C)C)[C@H]2O)[C@](C)(OC)C[C@@H](C)C(=O)[C@H](C)[C@@H](O)[C@]1(C)O` [CLARITHROMYCIN] are 72.8%, 23.4%, 64 µg/mL (≈ 85.6 µM) and at least 128 µg/mL.
For `CC[C@H]1OC(=O)[C@H](C)[C@@H](O[C@H]2C[C@@](C)(OC)[C@@H](O)[C@H](C)O2)[C@H](C)[C@@H](O[C@@H]2O[C@H](C)C[C@H](N(C)C)[C@H]2O)[C@](C)(O)C[C@@H](C)C(=O)[C@H](C)[C@@H](O)[C@]1(C)O` [ERYTHROMYCIN], in that order: 80%, 20%, 4 µg/mL (≈ 5.45 µM) and at least 128 µg/mL.
One may read the MIC as the smallest concentration in the dilution series that meets the test's criterion for growth inhibition. A lower MIC goes with inhibition by little substance. In the case of `C[C@H]1COc2c(N3CCN(C)CC3)c(F)cc3c(=O)c(C(=O)O)cn1c23.C[C@H]1COc2c(N3CCN(C)CC3)c(F)cc3c(=O)c(C(=O)O)cn1c23.O` [LEVOFLOXACIN], the minimal inhibitory concentration (MIC) in test [4] was determined as 0.064 µg/mL; in test [5], 0.004 µg/mL; in [6], 0.032 µg/mL; in [7], 0.008 µg/mL; in test [8], 0.064 µg/mL; in [9], 0.064 µg/mL. Besides, the MIC in [10] was 0.004 µg/mL; in [11] it was 0.008 µg/mL; in test [12], 0.008 µg/mL. For the same compound, the Activity in test [1] was 3%. In addition, the Percent susceptible isolates in test [2] is 96.2%. Besides, in test [3], the MIC50 is 1 µg/mL. Further, in test [3], the MIC90 was 2 µg/mL.
In the case of `CC(=O)NC[C@H]1CN(c2ccc(N3CCOCC3)c(F)c2)C(=O)O1` [LINEZOLID], in [1], the Activity came to 0%. Also, the Percent susceptible isolates in test [2] stood at 100%. In test [3], this compound displayed an MIC50 of 0.5 µg/mL (≈ 1.48 µM) and an MIC90 of 1 µg/mL (≈ 2.96 µM).
`COc1c(N2C[C@@H]3CCCN[C@@H]3C2)c(F)cc2c(=O)c(C(=O)O)cn(C3CC3)c12` [MOXIFLOXACIN]: the Activity in [1] is on record as 1.7%. The Percent susceptible isolates in test [2] amounted to 97.9%.
`CN(C)[C@@H]1C(O)=C(C(N)=O)C(=O)[C@@]2(O)C(O)=C3C(=O)c4c(O)cccc4[C@@](C)(O)[C@H]3C[C@@H]12` [TETRACYCLINE]: the Activity in test [1] was 81.3%. Further, the Percent susceptible isolates in test [2] came to 18.3%. In test [3], this compound returned an MIC50 of 32 µg/mL (≈ 72 µM) and an MIC90 of 64 µg/mL (≈ 144 µM).
For `CN[C@H](CC(C)C)C(=O)N[C@H]1C(=O)N[C@@H](CC(N)=O)C(=O)N[C@H]2C(=O)N[C@H]3C(=O)N[C@H](C(=O)N[C@H](C(=O)O)c4cc(O)cc(O)c4-c4cc3ccc4O)[C@H](O)c3ccc(c(Cl)c3)Oc3cc2cc(c3O[C@@H]2O[C@H](CO)[C@@H](O)[C@H](O)[C@H]2O[C@H]2C[C@](C)(N)[C@H](O)[C@H](C)O2)Oc2ccc(cc2Cl)[C@H]1O` [VANCOMYCIN], in that order: 0%, 100%, 0.25 µg/mL (≈ 0.173 µM) and 0.25 µg/mL (≈ 0.173 µM).
